Laboratory results reported in patent publication US7008905B2, “Method of combating undesired plant growth on cereals” (BASF Aktiengesellschaft, priority 2000, dated 2006).

Experiments:
Assay type in all cases: in vivo
Alopecurus myosuroides = experiment: Pre-emergence test, weed control; conditions: 3 weeks after treatment, rating 0-100 (100=death), Table 3
Protocol: (§1) The pre-emergence tests involve spraying a liquid formulation of the compound onto the soil in which the seeds of the plant species mentioned above has recently been sown.
(§2) The soil used in the tests is a prepared horticultural loam. The formulations used in the tests are prepared from solutions of the test compounds in acetone containing 0.4% by weight of an alkylphenol/ethylene oxide condensate available under the trade mark TRITON X-155.
(§3) In these tests untreated sown soil is used as control. The herbicidal effects of the test compounds are assessed visually three weeks after spraying the soil and are recorded an a 0 to 100 scale. A rating 0 indicates growth as untreated control, a rating 100 indicates death. An increase of 10 unit an the linear scale approximates to a 10% increase in the level of effect. The results of the assessment are set out in Tables 1 to 4.

Apera spica-venti = experiment: Pre-emergence test, weed control; conditions: 3 weeks after treatment, rating 0-100 (100=death), Table 3
Protocol: as §1, §2, §3

Galium aparine = experiment: Pre-emergence test, weed control; conditions: 3 weeks after treatment, rating 0-100 (100=death), Table 3
Protocol: as §1, §2, §3

Lamium purpureum = experiment: Pre-emergence test, weed control; conditions: 3 weeks after treatment, rating 0-100 (100=death), Table 3
Protocol: as §1, §2, §3

Lolium perenne = experiment: Pre-emergence test, weed control; conditions: 3 weeks after treatment, rating 0-100 (100=death), Table 3
Protocol: as §1, §2, §3

Matricaria inodora = experiment: Pre-emergence test, weed control; conditions: 3 weeks after treatment, rating 0-100 (100=death), Table 3
Protocol: as §1, §2, §3

Poa annua = experiment: Pre-emergence test, weed control; conditions: 3 weeks after treatment, rating 0-100 (100=death), Table 3
Protocol: as §1, §2, §3

Setaria viridis = experiment: Pre-emergence test, weed control; conditions: 3 weeks after treatment, rating 0-100 (100=death), Table 3
Protocol: as §1, §2, §3

Stellaria media = experiment: Pre-emergence test, weed control; conditions: 3 weeks after treatment, rating 0-100 (100=death), Table 3
Protocol: as §1, §2, §3

Veronica persica = experiment: Pre-emergence test, weed control; conditions: 3 weeks after treatment, rating 0-100 (100=death), Table 3
Protocol: as §1, §2, §3

PAPRH = experiment: Pre-emergence test, weed control; conditions: 3 weeks after treatment, rating 0-100 (100=death), Table 3
Protocol: as §1, §2
as §3, with “These acetone solutions are diluted with water and the resulting formulations applied at dosage levels corresponding to 15 g, 30 g, 60 g, 120 g or 240 g of active material per hectare in a volume equivalent to 900 liters per hectare. In” for “In”

VIOAR = experiment: Pre-emergence test, weed control; conditions: 3 weeks after treatment, rating 0-100 (100=death), Table 3
Protocol: as §1, §2
as §3, with “These acetone solutions are diluted with water and the resulting formulations applied at dosage levels corresponding to 15 g, 30 g, 60 g, 120 g or 240 g of active material per hectare in a volume equivalent to 900 liters per hectare. In” for “In”

[1] = system: Triticum aestivum variety “Kanzler”; experiment: Pre-emergence test, selectivity; conditions: 3 weeks after treatment, rating 0-100 (100=death), Table 4
Protocol: as §1, §2
as §3, with “These acetone solutions are diluted with water and the resulting formulations applied at dosage levels corresponding to 15 g, 30 g, 60 g, 120 g or 240 g of active material per hectare in a volume equivalent to 900 liters per hectare. In” for “In”

[2] = system: Triticum aestivum variety “Monopol”; experiment: Pre-emergence test, selectivity; conditions: 3 weeks after treatment, rating 0-100 (100=death), Table 4
Protocol: as §1, §2
as §3, with “These acetone solutions are diluted with water and the resulting formulations applied at dosage levels corresponding to 15 g, 30 g, 60 g, 120 g or 240 g of active material per hectare in a volume equivalent to 900 liters per hectare. In” for “In”

wheat = experiment: Pre-emergence test, tolerance in wheat; conditions: in vivo
Protocol: as §1, §2
as §3, with “These acetone solutions are diluted with water and the resulting formulations applied at dosage levels corresponding to 15 g, 30 g, 60 g, 120 g or 240 g of active material per hectare in a volume equivalent to 900 liters per hectare. In” for “In”

Cc1cc(Oc2ccnc(Cl)c2)nc(-c2ccc(C(F)(F)F)cc2)n1 [REF-6]
25: TRZAWK rating (Selectivity) ([1]; 0.240 kg/ha) | TRZAWM rating (Selectivity) ([2]; 0.240 kg/ha)
60: ALOMY weed control rating (Alopecurus myosuroides; 0.060 kg/ha)
1: TRZAWM rating (Selectivity) ([2]; 0.030 kg/ha)
96: VERPE weed control rating (Veronica persica; 0.030 kg/ha)
10: TRZAWK rating (Selectivity) ([1]; 0.060 kg/ha)
85: LAMPU weed control rating (Lamium purpureum; 0.030 kg/ha)
120 g/ha: maximum tolerated dose in wheat / dose at which sufficiently selective in wheat (wheat)
97: ALOMY weed control rating (Alopecurus myosuroides; 0.120 kg/ha) | GALAP weed control rating (Galium aparine; 0.240 kg/ha) | STEME weed control rating (Stellaria media; 0.030 kg/ha)
15: TRZAWM rating (Selectivity) ([2]; 0.120 kg/ha)
95: LOLPE weed control rating (Lolium perenne; 0.030 kg/ha)
8: TRZAWM rating (Selectivity) ([2]; 0.060 kg/ha)
99: ALOMY weed control rating (Alopecurus myosuroides; 0.240 kg/ha) | MATIN weed control rating (Matricaria inodora; 0.030 kg/ha) | VIOAR weed control rating (VIOAR; 0.030 kg/ha) | VIOAR weed control rating (VIOAR; 0.060 kg/ha) | VIOAR weed control rating (VIOAR; 0.120 kg/ha) | VIOAR weed control rating (VIOAR; 0.240 kg/ha)
12: TRZAWK rating (Selectivity) ([1]; 0.120 kg/ha)
100: APESV weed control rating (Apera spica-venti; 0.030 kg/ha) | APESV weed control rating (Apera spica-venti; 0.060 kg/ha) | APESV weed control rating (Apera spica-venti; 0.120 kg/ha) | APESV weed control rating (Apera spica-venti; 0.240 kg/ha) | LAMPU weed control rating (Lamium purpureum; 0.060 kg/ha) | LAMPU weed control rating (Lamium purpureum; 0.120 kg/ha) | LAMPU weed control rating (Lamium purpureum; 0.240 kg/ha) | LOLPE weed control rating (Lolium perenne; 0.060 kg/ha) | LOLPE weed control rating (Lolium perenne; 0.120 kg/ha) | LOLPE weed control rating (Lolium perenne; 0.240 kg/ha) | MATIN weed control rating (Matricaria inodora; 0.060 kg/ha) | MATIN weed control rating (Matricaria inodora; 0.120 kg/ha) | MATIN weed control rating (Matricaria inodora; 0.240 kg/ha) | POAAN weed control rating (Poa annua; 0.030 kg/ha) | POAAN weed control rating (Poa annua; 0.060 kg/ha) | POAAN weed control rating (Poa annua; 0.120 kg/ha) | POAAN weed control rating (Poa annua; 0.240 kg/ha) | SETVI weed control rating (Setaria viridis; 0.030 kg/ha) | SETVI weed control rating (Setaria viridis; 0.060 kg/ha) | SETVI weed control rating (Setaria viridis; 0.120 kg/ha) | SETVI weed control rating (Setaria viridis; 0.240 kg/ha) | STEME weed control rating (Stellaria media; 0.060 kg/ha) | STEME weed control rating (Stellaria media; 0.120 kg/ha) | STEME weed control rating (Stellaria media; 0.240 kg/ha) | VERPE weed control rating (Veronica persica; 0.060 kg/ha) | VERPE weed control rating (Veronica persica; 0.120 kg/ha) | VERPE weed control rating (Veronica persica; 0.240 kg/ha) | PAPRH weed control rating (PAPRH; 0.030 kg/ha) | PAPRH weed control rating (PAPRH; 0.060 kg/ha) | PAPRH weed control rating (PAPRH; 0.120 kg/ha) | PAPRH weed control rating (PAPRH; 0.240 kg/ha)
30: ALOMY weed control rating (Alopecurus myosuroides; 0.030 kg/ha)
65: GALAP weed control rating (Galium aparine; 0.120 kg/ha)
